{
  "source": "patent US5126356A",
  "about": "“Piperidine compounds” (Adir et Compagnie, priority 1989, dated 1992)",
  "key": {"beagle dogs [1]": {"test_system": "beagle dogs", "assay": "Anti-ischaemic activity, Protocol 1: tight coronary stenosis in anaesthetised beagle dogs", "assay_type": "in vivo, dog", "description": "(§1) The studies are carried out on beagle dogs weighing from 9 to 12 kg which have been anaesthetised with pentobarbital sodium 30 mg/kg i.v., intubated and ventilated, and subjected to a thoracotomy at the 5th left intercostal space.\n(§2) An electromagnetic ring connected to a Gould SP 2202 electromagnetic flow meter is placed around the circumflex branch of the left coronary artery, and an inflatable balloon is placed just downstream of that ring for the production of coronary stenoses under the control of the coronary output.\n(§3) Piezoelectric crystals (5 MHz) connected to a Triton sonomicrometer are implanted in the subendocardium of the left ventricular wall, in an area that is to become ischaemic, for measuring local myocardial contractility; epicardial electrodes are placed in the same area for recording the epicardial electrocardiogram.\nMyocardial ischaemia is induced by tight coronary stenosis that reduces coronary output by about 70%.\nThe same coronary stenosis, the effects of which are reversible and reproducible, is produced in the same animal for two periods of 10 minutes, separated by a recovery period of 45 minutes.\nTreatments are administered intravenously 2 minutes after coronary stenosis:\ninjection of solvent after the first coronary stenosis, which serves as control,\ninjection of the test product after the second coronary stenosis.\n(§4) Myocardial contractility is evaluated by the proportion of systolic shortening of the lengths of the segments between the piezoelectric crystals.\n(§5) Hypokinesia in the ischaemic area is expressed as percentage variation relative to the contractility measured in the control period.\n(§6) Modification of the epicardial ECG in the ischaemic area consists in raising the epicardial ST segment measured in millivolts (mV)."}, "Beta adrenergic β": {"biological_target": "Beta adrenergic β", "assay": "Binding to neurotransmitter receptors: beta adrenergic ([3H] DHA)", "details": "read-out: K0.5"}, "type L calcium channels [2]": {"biological_target": "type L calcium channels", "assay": "Binding: displacement of [3H] D888 at the Ca2+ channel", "details": "read-out: K0.5 (50% of specifically fixed radioactivity displaced)"}, "beagle dogs [3]": {"test_system": "beagle dogs", "assay": "Anti-ischaemic activity, Protocol 2: moderate coronary stenosis plus auricular pacing in anaesthetised beagle dogs", "assay_type": "in vivo, dog", "details": "Pacing 2 minutes, 1 mg/kg i.v.", "description": "as §1, §2, §3\nTwo electrodes are sewn at the right auricle in the region of the sinoauricular node for the protocols including pacing sequences. […]\nas §4, §5, §6"}, "cardiac cells": {"test_system": "cardiac cells", "assay": "Protection of cardiac cells from necrosis induced by intracellular acidosis (αHBDH release)", "assay_type": "cell-based, rat", "description": "a) Cardiac cells: the cardiac cells are prepared from the hearts of newly born (3 days) Wistar rats in accordance with the technique of RENAUD JF., MEAUX JP., ROMEY G., SCHMID A., LAZDUNSKI M., Activation of the voltage-dependent Ca^2+ channels in rat heart cells by dihydropyridine derivative--Biochem. Biophys. Res. Commun., 125, 405-412 (1984).\nThe cardiomyocytes are isolated from the ventricles by enzymatic dissociation and cultured at 185,000 cells/cm^2. The cells are kept at 37° C. under an air/CO2 atmosphere (95 V/5 V) saturated with water. The cardiomyocytes are used between the 3rd and 8th day following culturing.\nIntracellular acidosis is induced in accordance with the conditions published by RENAUD JF., Internal pH Na^+ and Ca^2+ regulation by trimetazidine during cardiac cell acidosis. Cardiovasc. Drugs and Ther., 1, 667-686 (1988) in the presence or absence of the products to be tested. Cellular necrosis is evaluated by measuring by spectrophotometry using the Boerhinger 124800 kit the kinetics of the release of a cytosolic enzyme α-hydroxybutyrate dehydrogenase (αHBDH) into the extracellular medium.\nThe signal measured corresponds to the amplitude of the necrosis induced by the acidosis. The values are the means ±SD. The number of experiments is indicated in parentheses."}, "5HT1A": {"biological_target": "T1, 5HT1A (Homo sapiens, UniProt P08908)", "T1 sequence (P08908 1-422)": "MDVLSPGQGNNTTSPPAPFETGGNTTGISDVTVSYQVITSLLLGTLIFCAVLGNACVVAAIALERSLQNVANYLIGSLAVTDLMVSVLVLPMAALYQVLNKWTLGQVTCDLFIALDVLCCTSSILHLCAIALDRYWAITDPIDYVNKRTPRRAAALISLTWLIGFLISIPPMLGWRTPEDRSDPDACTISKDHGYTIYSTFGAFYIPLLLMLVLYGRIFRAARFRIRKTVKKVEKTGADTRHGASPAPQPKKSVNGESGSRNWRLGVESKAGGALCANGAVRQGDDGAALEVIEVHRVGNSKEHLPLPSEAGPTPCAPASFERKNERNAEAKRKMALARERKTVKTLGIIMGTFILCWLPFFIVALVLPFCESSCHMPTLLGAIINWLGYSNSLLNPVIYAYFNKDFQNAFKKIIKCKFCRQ", "assay": "Binding to neurotransmitter receptors: 5HT1A ([3H] 8 OH DPAT)", "details": "read-out: K0.5"}, "Dopamine D1": {"biological_target": "Dopamine D1 (Homo sapiens, UniProt P21728)", "sequence (P21728 whole entry)": "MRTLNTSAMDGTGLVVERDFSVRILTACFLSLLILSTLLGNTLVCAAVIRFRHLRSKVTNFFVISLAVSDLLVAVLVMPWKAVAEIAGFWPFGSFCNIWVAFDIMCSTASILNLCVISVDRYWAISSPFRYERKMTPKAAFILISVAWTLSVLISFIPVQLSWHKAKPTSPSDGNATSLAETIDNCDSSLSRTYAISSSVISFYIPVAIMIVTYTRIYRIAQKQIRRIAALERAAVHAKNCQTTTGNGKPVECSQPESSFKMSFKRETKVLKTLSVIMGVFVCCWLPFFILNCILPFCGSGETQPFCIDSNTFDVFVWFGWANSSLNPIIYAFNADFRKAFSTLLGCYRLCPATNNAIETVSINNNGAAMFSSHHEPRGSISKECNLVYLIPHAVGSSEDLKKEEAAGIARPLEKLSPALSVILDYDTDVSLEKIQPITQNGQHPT", "assay": "Binding to neurotransmitter receptors: D1 ([3H] SCH 23390)", "details": "read-out: K0.5"}, "[4]": {"test_system": "neurotransmitter receptors (5HT, α,β)", "assay": "Effect on neurotransmitter receptors (panel as a whole)", "assay_type": "binding", "details": "exception of the dopaminergic receptors", "description": "The competition experiments between the different radioligands and the reference molecules are carried out under the standard binding conditions according to O'BRIEN R. A., Receptor binding in drug research. In: Clinical Pharmacology, vol. 5, DEKKER M. Inc., New York and Basle (1986). In all cases, after the required linkage time, the bound radioactivity is separated from the free component by in vacuo filtration on a GF/C filter."}, "Alpha adrenergic α1": {"biological_target": "Alpha adrenergic α1", "assay": "Binding to neurotransmitter receptors: alpha1 adrenergic ([3H] Prazosin)", "details": "α1, [3H] Prazosin; read-out: K0.5"}, "5HT2": {"biological_target": "5HT2 (Homo sapiens, UniProt P28223)", "sequence (P28223 whole entry, species assumed)": "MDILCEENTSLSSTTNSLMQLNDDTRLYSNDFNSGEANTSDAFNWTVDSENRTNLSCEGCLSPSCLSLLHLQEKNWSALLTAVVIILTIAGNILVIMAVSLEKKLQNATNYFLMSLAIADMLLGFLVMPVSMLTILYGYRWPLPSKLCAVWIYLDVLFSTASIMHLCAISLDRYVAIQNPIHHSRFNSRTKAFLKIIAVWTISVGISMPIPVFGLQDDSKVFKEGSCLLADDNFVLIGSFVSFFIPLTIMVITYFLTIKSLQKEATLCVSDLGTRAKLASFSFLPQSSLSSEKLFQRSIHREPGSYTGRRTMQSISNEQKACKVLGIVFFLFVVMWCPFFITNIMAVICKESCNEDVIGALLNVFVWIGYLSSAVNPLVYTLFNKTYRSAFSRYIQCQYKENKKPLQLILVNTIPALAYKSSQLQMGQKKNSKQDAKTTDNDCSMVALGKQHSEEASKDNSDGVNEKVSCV", "assay": "Binding to neurotransmitter receptors: 5HT2 ([3H] Ketanserine)"}, "type L calcium channels [5]": {"biological_target": "T2, type L calcium channels (Oryctolagus cuniculus, UniProt P07293)", "T2 construct": "microsomal fractions enriched with type L calcium channels; from tissue; host or cells: microsomal fractions", "assay": "Binding: displacement of [3H] PN 200-110 at the Ca2+ channel"}, "type L Ca^2+ channel": {"biological_target": "T3, type L Ca^2+ channel (Rattus norvegicus, UniProt P22002)", "T3 construct": "cell lines from the aorta of newly born rats; host or cells: A7 r5", "T3 sequence (P22002 whole entry)": "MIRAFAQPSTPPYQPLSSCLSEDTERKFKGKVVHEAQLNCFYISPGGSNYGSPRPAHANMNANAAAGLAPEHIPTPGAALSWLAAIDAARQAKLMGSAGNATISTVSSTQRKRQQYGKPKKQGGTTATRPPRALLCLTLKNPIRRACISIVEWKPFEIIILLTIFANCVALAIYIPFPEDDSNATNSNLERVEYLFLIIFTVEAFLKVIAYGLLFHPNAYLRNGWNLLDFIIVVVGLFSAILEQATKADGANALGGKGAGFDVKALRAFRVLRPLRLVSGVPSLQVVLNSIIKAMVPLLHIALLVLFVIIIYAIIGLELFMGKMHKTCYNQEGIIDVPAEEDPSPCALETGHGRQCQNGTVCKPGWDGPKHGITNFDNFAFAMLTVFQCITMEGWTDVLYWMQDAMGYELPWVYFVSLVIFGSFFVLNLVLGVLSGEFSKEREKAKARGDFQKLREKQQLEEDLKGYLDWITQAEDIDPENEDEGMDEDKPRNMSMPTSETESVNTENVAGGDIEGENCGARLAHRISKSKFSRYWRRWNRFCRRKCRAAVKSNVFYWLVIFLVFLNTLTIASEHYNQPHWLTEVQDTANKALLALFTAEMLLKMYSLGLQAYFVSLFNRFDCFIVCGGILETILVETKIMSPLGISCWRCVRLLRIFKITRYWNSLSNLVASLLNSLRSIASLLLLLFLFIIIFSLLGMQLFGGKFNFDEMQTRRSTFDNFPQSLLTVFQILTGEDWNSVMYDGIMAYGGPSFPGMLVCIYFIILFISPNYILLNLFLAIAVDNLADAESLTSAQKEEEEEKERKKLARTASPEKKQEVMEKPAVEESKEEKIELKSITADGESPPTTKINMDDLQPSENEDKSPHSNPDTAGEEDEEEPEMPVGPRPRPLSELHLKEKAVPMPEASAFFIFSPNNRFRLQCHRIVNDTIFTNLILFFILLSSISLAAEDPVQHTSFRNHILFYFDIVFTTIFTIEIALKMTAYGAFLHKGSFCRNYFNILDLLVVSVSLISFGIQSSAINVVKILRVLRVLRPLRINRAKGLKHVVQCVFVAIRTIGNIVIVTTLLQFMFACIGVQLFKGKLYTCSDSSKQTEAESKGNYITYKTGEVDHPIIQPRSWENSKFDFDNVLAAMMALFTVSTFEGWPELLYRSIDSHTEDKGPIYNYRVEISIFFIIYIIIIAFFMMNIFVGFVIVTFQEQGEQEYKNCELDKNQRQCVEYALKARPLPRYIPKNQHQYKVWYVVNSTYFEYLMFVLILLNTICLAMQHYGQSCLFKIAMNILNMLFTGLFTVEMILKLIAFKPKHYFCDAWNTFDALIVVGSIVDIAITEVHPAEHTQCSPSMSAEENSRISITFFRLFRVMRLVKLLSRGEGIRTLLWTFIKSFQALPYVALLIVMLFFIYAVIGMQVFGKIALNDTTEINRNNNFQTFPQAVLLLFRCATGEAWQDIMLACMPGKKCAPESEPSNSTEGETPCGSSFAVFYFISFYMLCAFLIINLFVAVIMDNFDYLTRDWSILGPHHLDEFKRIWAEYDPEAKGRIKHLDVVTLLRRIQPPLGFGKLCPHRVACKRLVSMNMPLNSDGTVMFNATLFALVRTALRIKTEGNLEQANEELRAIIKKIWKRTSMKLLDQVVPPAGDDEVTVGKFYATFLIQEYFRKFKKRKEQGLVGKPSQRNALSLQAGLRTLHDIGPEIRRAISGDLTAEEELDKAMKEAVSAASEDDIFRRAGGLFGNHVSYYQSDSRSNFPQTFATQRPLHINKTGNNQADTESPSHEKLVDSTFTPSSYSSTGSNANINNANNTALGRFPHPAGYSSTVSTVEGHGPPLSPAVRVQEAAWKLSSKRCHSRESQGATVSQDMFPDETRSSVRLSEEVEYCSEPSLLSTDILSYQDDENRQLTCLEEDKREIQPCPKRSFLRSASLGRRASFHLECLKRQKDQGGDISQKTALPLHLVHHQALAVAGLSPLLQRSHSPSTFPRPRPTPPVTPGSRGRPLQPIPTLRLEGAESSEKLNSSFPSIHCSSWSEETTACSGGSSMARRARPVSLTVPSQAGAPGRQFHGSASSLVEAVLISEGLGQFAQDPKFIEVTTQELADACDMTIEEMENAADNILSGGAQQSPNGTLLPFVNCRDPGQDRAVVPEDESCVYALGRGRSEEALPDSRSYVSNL", "T3 sequence (P54290 25-945 partner limits assumed)": "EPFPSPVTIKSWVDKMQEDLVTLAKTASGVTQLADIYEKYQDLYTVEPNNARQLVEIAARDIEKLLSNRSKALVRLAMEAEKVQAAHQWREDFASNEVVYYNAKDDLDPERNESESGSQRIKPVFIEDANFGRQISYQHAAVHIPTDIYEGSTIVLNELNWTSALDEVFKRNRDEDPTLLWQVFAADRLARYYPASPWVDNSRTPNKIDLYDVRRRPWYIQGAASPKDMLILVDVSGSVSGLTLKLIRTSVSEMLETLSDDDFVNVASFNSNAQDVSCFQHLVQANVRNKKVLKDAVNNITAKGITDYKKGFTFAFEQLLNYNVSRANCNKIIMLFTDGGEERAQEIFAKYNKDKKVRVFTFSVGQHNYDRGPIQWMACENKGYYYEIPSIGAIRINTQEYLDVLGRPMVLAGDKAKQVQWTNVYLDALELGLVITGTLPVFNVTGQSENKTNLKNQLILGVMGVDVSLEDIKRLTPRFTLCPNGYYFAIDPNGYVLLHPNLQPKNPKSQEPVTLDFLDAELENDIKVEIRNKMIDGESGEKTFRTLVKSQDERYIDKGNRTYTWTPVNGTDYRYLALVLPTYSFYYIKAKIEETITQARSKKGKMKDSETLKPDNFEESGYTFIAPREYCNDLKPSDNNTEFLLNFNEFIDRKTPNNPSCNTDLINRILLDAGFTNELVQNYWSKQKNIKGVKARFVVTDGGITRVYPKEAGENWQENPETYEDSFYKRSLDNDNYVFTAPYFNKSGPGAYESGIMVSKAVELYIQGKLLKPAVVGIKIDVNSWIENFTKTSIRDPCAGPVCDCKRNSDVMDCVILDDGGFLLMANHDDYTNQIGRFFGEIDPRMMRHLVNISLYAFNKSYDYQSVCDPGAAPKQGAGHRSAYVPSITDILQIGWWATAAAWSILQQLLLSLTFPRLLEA", "T3 sequence (P54290 946-1091 partner limits assumed)": "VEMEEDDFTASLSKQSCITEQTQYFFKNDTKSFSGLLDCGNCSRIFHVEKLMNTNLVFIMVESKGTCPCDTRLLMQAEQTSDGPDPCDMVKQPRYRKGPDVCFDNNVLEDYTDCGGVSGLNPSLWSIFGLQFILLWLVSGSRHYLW", "assay": "Inhibition of 45Ca2+ influx through the Ca2+ channel in A7 r5 cells", "assay_type": "cell-based"}},
  "data": [
    {"smiles": "COc1ccc(CSC2CCN(CC=Cc3ccccc3)CC2)c(OC)c1OC", "note": "[Example 1, 4-(2,3,4-trimethoxybenzylthio)-1-cinnamylpiperidine]", "values": [
      {"measurement": "Contractility delta %", "setting": "beagle dogs [1]; 10 minutes after treatment, 1 mg/kg i.v., solvent -44.5", "value": -24.3, "unit": "%"},
      {"measurement": "Epicardial ST delta mV", "setting": "beagle dogs [1]; 10 minutes after treatment, 1 mg/kg, solvent +4", "value": "+2 mV"},
      {"measurement": "Epicardial ST delta mV", "setting": "beagle dogs [1]; Stenosis (before treatment), 1 mg/kg group, solvent +4.5", "value": "+4.5 mV"},
      {"measurement": "Contractility delta %", "setting": "beagle dogs [1]; Stenosis (before treatment), 1 mg/kg i.v. group, solvent -45.8", "value": -45, "unit": "%"},
      {"measurement": "anti-ischaemic effect (in words)", "setting": "beagle dogs [1]; intravenous, Protocols 1 and 2", "value": "markedly reduces both preventively and curatively the electrocardiographic modifications and the modifications of myocardial contractility induced by ischaemia"},
      {"measurement": "IC50", "setting": "Beta adrenergic β", "value": 2000, "unit": "nM"},
      {"measurement": "IC50", "setting": "type L calcium channels [2]", "value": 1300, "unit": "nM"},
      {"measurement": "Epicardial ST delta mV", "setting": "beagle dogs [3]; solvent +6.0", "value": "+0.5 mV"},
      {"measurement": "Contractility delta %", "setting": "beagle dogs [3]; solvent -62.6", "value": -42.2, "unit": "%"},
      {"measurement": "activity at 0.3 µM", "setting": "cardiac cells; Rattus norvegicus, Cardiomyocyte, 0.3 μM, control after acidosis alone 100%, before acidosis 0%, mean ±SD, read-out: amplitude of the necrosis induced by the acidosis", "value": 144, "unit": "%"},
      {"measurement": "activity at 1 µM", "setting": "cardiac cells; Rattus norvegicus, Cardiomyocyte, 1 μM, control after acidosis alone 100%, mean ±SD, read-out: amplitude of the necrosis induced by the acidosis", "value": 21.9, "unit": "%"},
      {"measurement": "activity at 3 µM", "setting": "cardiac cells; Rattus norvegicus, Cardiomyocyte, 3 μM, control after acidosis alone 100%, mean ±SD, read-out: amplitude of the necrosis induced by the acidosis", "value": 1.42, "unit": "%"},
      {"measurement": "activity at 10 µM", "setting": "cardiac cells; Rattus norvegicus, Cardiomyocyte, 10 μM, control after acidosis alone 100%, mean ±SD, read-out: amplitude of the necrosis induced by the acidosis", "value": 2.14, "unit": "%"},
      {"measurement": "activity at 30 µM", "setting": "cardiac cells; Rattus norvegicus, Cardiomyocyte, 30 μM, control after acidosis alone 100%, mean ±SD, read-out: amplitude of the necrosis induced by the acidosis", "value": 9.68, "unit": "%"},
      {"measurement": "minimal effective concentration", "setting": "cardiac cells; Rattus norvegicus, 1 μM and above, read-out: concentration at which protection occurs", "value": "≥ 1", "unit": "µM"},
      {"measurement": "protection of cells with respect to intracellular acidosis (in words)", "setting": "cardiac cells; in vitro", "value": "protects the cardiac cell from necrosis induced by intracellular acidosis"},
      {"measurement": "IC50", "setting": "5HT1A", "value": 3000, "unit": "nM"},
      {"measurement": "IC50", "setting": "Dopamine D1", "value": 300, "unit": "nM"},
      {"measurement": "interaction with neurotransmitter receptors (in words)", "setting": "[4]", "value": "interacts in a relatively non-specific manner and with low affinity with neurotransmitter receptors (5HT, α,β) with the exception of the dopaminergic receptors"},
      {"measurement": "IC50", "setting": "Alpha adrenergic α1", "value": 2000, "unit": "nM"},
      {"measurement": "IC50", "setting": "5HT2", "value": 1000, "unit": "nM"},
      {"measurement": "binding to the slow Ca2+ channel (in words)", "setting": "type L calcium channels [5]", "value": "binds to the receptors of the slow Ca^2+ channel"},
      {"measurement": "IC50", "setting": "type L calcium channels [5]; [3H] PN 200-110, read-out: K0.5 (50% of specifically fixed radioactivity displaced)", "value": 1000, "unit": "nM"},
      {"measurement": "inhibition of Ca2+ influx (in words)", "setting": "type L Ca^2+ channel", "value": "inhibition of the influx of Ca^2+"},
      {"measurement": "IC50", "setting": "type L Ca^2+ channel; 45Ca2+ influx, A7 r5 cells, read-out: K0.5 (50% of 45Ca2+ influx inhibited)", "value": 3000, "unit": "nM"}
    ]}
  ]
}
